# Measured values reported in patent US20110183978A1, “Phenylpyri(mi)dinylazoles” (Bayer CropScience AG, priority 2009, published 2011).
# Assay: physchem
# Conditions: LogPA (logP of the stated pure compound or, in a mixture, of the main isomer, 1-substituted 3-aryl-1H-pyrazole)
row,chromatographic logP,SMILES
1,3.5,CC(C)=CCn1cc(-c2ccncn2)c(-c2cccc(Cl)c2)n1 [Compound 34]
2,2.1,FC(F)(F)c1cccc(-c2nn(C3CCCCO3)cc2-c2cc(N3CCOCC3)ncn2)c1 (centres unmarked) [Compound 36]
3,1.9,CCC(C)n1ncc(-c2ccncc2)c1-c1c(F)cccc1F (centres unmarked) [Compound 38]
4,1.38,Nc1cc(-c2cn(C3CCCCO3)nc2-c2ccc(F)cc2)ccn1 (centres unmarked) [Compound 39]
5,1.84,FC(F)(F)c1cccc(-c2nn(C3CCCCO3)cc2-c2ccncc2)c1 (centres unmarked) [Compound 42]
6,1.24,COc1ccc(-c2nn(C3CCCCO3)cc2-c2ccncc2)cc1 (centres unmarked) [Compound 43]
7,1.69,COc1ccc(-c2c(-c3ccncc3)cnn2C2CCCCO2)c2ccccc12 (centres unmarked) [Compound 45]
8,4.1,CC(C)(C)C(=O)Nc1cc(-c2cn(C3CCCCO3)nc2-c2cccc(C(F)(F)F)c2)ccn1 (centres unmarked) [Compound 48]
9,3.47,C#CCn1ccc2c(-c3cn(C4CCCCO4)nc3-c3ccc(F)cc3)ccnc21 (centres unmarked) [Compound 49]
10,1.57,"Fc1ccc(-c2c(-c3ccncc3)cnn2C2CCCCO2)cc1Cl (centres unmarked) [Compound 51, 4-[5-(3-chloro-4-fluorophenyl)-1-(tetrahydro-2H-pyran-2-yl)-1H-pyrazol-4-yl]pyridine]"
11,1.49,Fc1ccc(-c2nn(C3CCCCO3)cc2-c2cc(N3CCOCC3)ncn2)cc1 (centres unmarked) [Compound 52]
12,1.35,"Fc1ccc(-c2c(-c3ccncc3)cnn2C2CCCCO2)c(F)c1 (centres unmarked) [Compound 56, 4-[5-(2,4-difluorophenyl)-1-(tetrahydro-2H-pyran-2-yl)-1H-pyrazol-4-yl]pyridine]"
13,2.02,"CC(C)(C)c1ccc(-c2c(-c3ccncc3)cnn2C2CCCCO2)cc1 (centres unmarked) [Compound 57, 4-[5-(4-tert-butylphenyl)-1-(tetrahydro-2H-pyran-2-yl)-1H-pyrazol-4-yl]pyridine]"
14,1.45,"N#Cc1cc(-c2c(-c3ccncc3)cnn2C2CCCCO2)ccc1F (centres unmarked) [Compound 61, 2-fluoro-5-[4-(pyridin-4-yl)-1-(tetrahydro-2H-pyran-2-yl)-1H-pyrazol-5-yl]benzonitrile]"
15,3.32,COc1ccc(-c2nn(C3CCCCO3)cc2-c2cc(-n3cccn3)ncn2)cc1 (centres unmarked) [Compound 62]
16,1.42,CCNc1cc(-c2cn(C3CCCCO3)nc2-c2ccc(F)cc2)ncn1 (centres unmarked) [Compound 63]
17,1.26,"COc1cc(F)ccc1-c1c(-c2ccncc2)cnn1C1CCCCO1 (centres unmarked) [Compound 64, 4-[5-(4-fluoro-2-methoxyphenyl)-1-(tetrahydro-2H-pyran-2-yl)-1H-pyrazol-4-yl]pyridine]"
18,1.54,COc1ccc(-c2nn(C3CCCCO3)cc2-c2ncnc3[nH]ccc23)cc1 (centres unmarked) [Compound 65]
19,1.88,"c1ccc(Oc2cccc(-c3c(-c4ccncc4)cnn3C3CCCCO3)c2)cc1 (centres unmarked) [Compound 67, 4-[5-(3-phenoxyphenyl)-1-(tetrahydro-2H-pyran-2-yl)-1H-pyrazol-4-yl]pyridine]"
20,0.96,"CS(=O)(=O)c1ccc(-c2c(-c3ccncc3)cnn2C2CCCCO2)cc1 (centres unmarked) [Compound 68, 4-{5-[4-(methylsulphonyl)phenyl]-1-(tetrahydro-2H-pyran-2-yl)-1H-pyrazol-4-yl}pyridine]"
21,1.31,COc1ccc(-c2nn(C3CCCCO3)cc2-c2ccnc(N)c2)cc1 (centres unmarked) [Compound 69]
22,1.78,FC(F)(F)Oc1ccc(-c2c(-c3ccncc3)cnn2C2CCCCO2)cc1 (centres unmarked) [Compound 71]
23,1.33,COc1ccc(-c2nn(C3CCCCO3)cc2-c2ccnc(C)c2)cc1 (centres unmarked) [Compound 73]
24,3.58,CSc1nccc(-c2cn(C3CCCCO3)nc2-c2ccc(F)cc2)n1 (centres unmarked) [Compound 74]
25,1.66,"Clc1cccc(-c2c(-c3ccncc3)cnn2C2CCCCO2)c1Cl (centres unmarked) [Compound 76, 4-[5-(2,3-dichlorophenyl)-1-(tetrahydro-2H-pyran-2-yl)-1H-pyrazol-4-yl]pyridine]"

row,SMILES,chromatographic logP
1,Cc1cc(-c2c(-c3ccncc3)cnn2C2CCCCO2)ccc1F (centres unmarked) [Compound 55],1.47
